Results taken from patent US11166948B2, “Pharmaceutical composition for treatment of aortic aneurysm” (National University Corporation Hamamatsu University School …, priority 2017, dated 2021).

What was measured:
[1] = tested on: aortic wall hypoxia-induced rat AAA model; assay: Action of Compound 1 in aortic wall hypoxia-induced rat AAA model; assay type: in vivo; settings: vs control group; for mortality due to rupture (non-rupture survival rate): day of operation to Day 28 post operation
Description: The action of Compound 1 in a rat AAA model (Non-Patent Document 3) induced by operation in which the aortic wall was separated from the surrounding tissue, a catheter was inserted, and then the abdominal aorta was ligated together with a catheter with a thread was studied.
In this test, Compound 1 was manufactured according to the method described in Patent Document 1, and mixed, in a proportion of 0.15%, with a normal diet (FR2, manufactured by Funabashi Farm Co., Ltd.), and the Compound 1-mixed diet was used.
Sprague-Dawley male rats (300 to 350 g: Japan SLC, Inc.) were used in the experiment. The rats were reared at room temperature of 25° C. ±1° C., and allowed to freely take the feed and water.
The model was created according to the method described in Non-Patent Document 3. Specifically, a rat AAA model was created by separating the rat aortic wall from the surrounding tissue, inserting a polyurethane catheter, and then ligating the abdominal aorta together with a plastic catheter with a monofilament thread, and inducing AAA.
The rat models were divided into two groups: a normal diet administration group (hereinafter referred to as “control group”) (n=20) and a 0.15% Compound 1-mixed diet administration group (hereinafter referred to as “Compound 1 group”) (n=20). The normal diet or Compound 1-mixed diet was freely fed in a period from one week before the AAA model creation operation (7 days before operation) to the end of the experiment.
In both the groups, up to 28 days post operation, the aneurysm diameter was measured by echo and comparison in survival was made.
In addition, the surviving animals were sacrificed after 28 days to analyze the AAA pathological tissue.
The AAA maximum short-axis diameter was measured with an ultrasonic diagnostic apparatus (Vevo770, manufactured by VisualSonics Inc.) on the day of operation and Day 7, Day 14, Day 21 and Day 28 post operation.
In the same models as in Example 1, the effect of Compound 1 on the formed AAA was studied.
Specifically, the administration of the Compound 1-mixed diet was started one week after the AAA model creation operation (7 days after operation) until the end of the experiment in this example, in place of one week before the AAA model creation operation (7 days before operation) until the end of the experiment in Example 1 (3). In addition, on Day 7 post operation, rats having an aortic aneurysm diameter of 3 mm or more were selected by measurement with an ultrasonic diagnostic apparatus (Vevo770, manufactured by VisualSonics Inc.), and then the rats were randomly divided into two groups: a normal diet administration group (hereinafter referred to as “control group”) (n=18) and a 0.15% Compound 1-mixed diet administration group (hereinafter referred to as “Compound 1 group”) (n=15). […]

[2] = tested on: elastase-induced model rats; settings: preventive administration before AAA formation; cited from earlier work

| Compound | aneurysm diameter (AAA maximum short-axis diameter) ([1]; Example 1: 0.15% Compound 1-mixed diet from 7 days before operation to end of experiment, echo up to Day 28 post operation, no significant difference) | mortality due to rupture (non-rupture survival rate) ([1]; Example 1: 0.15% Compound 1-mixed diet from 7 days before operation, Log Rank p=0.036) | mortality due to rupture (non-rupture survival rate) ([1]; Example 2: 0.15% Compound 1-mixed diet from 7 days after operation (formed AAA), Log Rank p=0.055) | aneurysm diameter (AAA maximum short-axis diameter) ([1]; Example 2: 0.15% Compound 1-mixed diet from 7 days after operation (formed AAA, diameter 3 mm or more), Day 7 to Day 14 post operation, p=0.014) | AAA dilatation [2] |
| --- | --- | --- | --- | --- | --- |
| O=C(NCCCOc1ccc2[nH]c(=O)ccc2c1)N(C1CC1)[C@@H]1CCCC[C@H]1O [Compound 1, (−)-6-[3-[3-cyclopropyl-3-[(1R,2R)-2-hydroxycyclohexyl]ureido]propoxy]-2(1H)-quinolinone] | tendency toward suppression of the increase in the aneurysm diameter | significantly lower | lower | significantly lower |  |
| O=C1CCc2cc(OCCCCc3nnnn3C3CCCCC3)ccc2N1 [cilostazol] |  |  |  |  | suppresses AAA dilatation |
